# Experimental data published in patent publication US10669268B2, “Bicyclic derivatives” (Hoffmann-La Roche Inc., priority 2012, dated 2020).
# Target: ATX (human His-tagged) (Homo sapiens (Human), UniProt Q13822)
# Assay: Human ATX enzyme inhibition assay (fluorescence quenching, MR121 substrate)
# Format: biochemical
# Details: 30 nM ATX, 1 μM MR121 substrate, 30° C., pH 8.0
# Procedure, shortened: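 Fluorescence-quenching assay using MR121 substrate at 1 μM final, incubated 15 min at 30 °C. Buffer was 50 mM Tris-HCl pH 8.0 with 140 mM NaCl, 5 mM KCl, 1 mM CaCl2, 1 mM MgCl2 and 0.01% Triton X-100.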
row,Structure (SMILES),IC50
1,"O=C(OCc1cc(Cl)cc(Cl)c1)N1CC[C@H]2CN(C(=O)c3ccc4[nH]nnc4c3)C[C@H]2C1 [Example 10B, (3aS,7aR)-2-(1H-benzotriazole-5-carbonyl)-octahydro-pyrrolo[3,4-c]pyridine-5-carboxylic acid 3,5-dichloro-benzyl ester]",118 nM
2,"O=C(OCc1cc(Cl)cc(Cl)c1)N1C[C@H]2CN(C(=O)c3ccc4[nH]nnc4c3)C[C@@H]2C1 [Example 4.02, (3aR,6aR)-3,5-dichlorobenzyl 5-(1H-benzo[d][1,2,3]triazole-5-carbonyl)hexahydropyrrolo[3,4-c]pyrrole-2(1H)-carboxylate]",11 nM
3,O=C(/C=C/c1ccc(OC(F)(F)F)c(Cl)c1)N1C[C@H]2CCN(C(=O)c3ccc4[nH]nnc4c3)C[C@@H]2C1 [Example 15.75],5 nM
4,"O=C(CCc1ccccc1C1CC1)N1CC[C@@H]2CN(C(=O)c3ccc4[nH]nnc4c3)C[C@@H]2CC1 [Example 17.19, 1-((3aR,8aS)-2-(1H-benzo[d][1,2,3]triazole-5-carbonyl)octahydropyrrolo[3,4-d]azepin-6(7H)-yl)-3-(2-cyclopropylphenyl)propan-1-one]",12 nM
5,"O=C(c1ccc2[nH]nnc2c1)N1C[C@H]2CN(C(=O)c3cc(OCC(F)(F)F)c4ccccc4n3)C[C@@H]2C1 [Example 19.38, ((3aS,6aS)-5-(1H-benzo[d][1,2,3]triazole-5-carbonyl)hexahydropyrrolo[3,4-c]pyrrol-2(1H)-yl)(4-(2,2,2-trifluoroethoxy)quinolin-2-yl)methanone]",5 nM
6,"O=C(OC1(c2cccc(Cl)c2)CC1)N1C[C@@H]2CN(C(=O)c3ccc4[nH]nnc4c3)C[C@@H]2C1 [Example 4.12, (3aS,6aR)-5-(1H-benzotriazole-5-carbonyl)-hexahydro-pyrrolo[3,4-c]pyrrole-2-carboxylic acid 1-(3-chloro-phenyl)-cyclopropyl ester]",1480 nM
7,O=C(COc1ccccc1-c1ccccc1)N1C[C@@H]2CN(C(=O)c3ccc4[nH]nnc4c3)C[C@H]2C1 [Example 15.88],27 nM
8,"O=C(/C=C/c1ccccc1C1CC1)N1CC[C@@H]2CN(C(=O)c3ccc4[nH]nnc4c3)C[C@@H]2CC1 [Example 1.29, (E)-1-((3aR,8aS)-2-(1H-benzo[d][1,2,3]triazole-5-carbonyl)octahydropyrrolo[3,4-d]azepin-6(7H)-yl)-3-(2-cyclopropylphenyl)prop-2-en-1-one]",8 nM
9,"O=C(OCc1ccc(OC(F)(F)F)cc1)N1C[C@@H]2CN(C(=O)c3cnc4[nH]nnc4c3)C[C@H]2C1 [Example 1.49, (3aS,6aS)-5-(3H-[1,2,3]triazolo[4,5-b]pyridine-6-carbonyl)-hexahydro-pyrrolo[3,4-c]pyrrole-2-carboxylic acid 4-trifluoromethoxy-benzyl ester]",218 nM
10,"O=C(OCc1cc(Cl)cc(Cl)c1)N1C[C@H]2C[C@H](Oc3ccc4[nH]c(=O)oc4c3)C[C@H]2C1 [Example 3, (3aR,5s,6aS)-3,5-Dichlorobenzyl 5-(2-oxo-2,3-dihydrobenzo[d]oxazol-6-yloxy)hexahydrocyclopenta[c]pyrrole-2(1H)-carboxylate]",36 nM
11,"O=C(OCc1ccc(OCC(F)(F)F)c(F)c1)N1CC[C@@H]2CN(C(=O)c3ccc4[nH]nnc4c3)C[C@@H]2CC1 [Example 1.46, (3aS,8aR)-2-(1H-benzotriazole-5-carbonyl)-octahydro-pyrrolo[3,4-d]azepine-6-carboxylic acid 3-fluoro-4-(2,2,2-trifluoro-ethoxy)-benzyl ester]",2 nM
12,O=C(/C=C/c1cccc(OC(F)(F)F)c1)N1C[C@@H]2CN(C(=O)c3ccc4[nH]nnc4c3)C[C@H]2C1 [Example 15.22],53 nM
13,"O=C(OCc1ccc(OC(F)(F)F)c(F)c1)N1C[C@@H]2CN(C(=O)c3ccc4[nH]nnc4c3)C[C@H]2C1 [Example 4.43, (3aS,6aS)-5-(1H-benzotriazole-5-carbonyl)-hexahydro-pyrrolo[3,4-c]pyrrole-2-carboxylic acid 3-fluoro-4-trifluoromethoxy-benzyl ester]",4 nM
14,"O=C(COc1ccc(OC(F)(F)F)cc1)N1C[C@@H]2CN(C(=O)[C@@H]3CCc4[nH]nnc4C3)C[C@H]2C1 [Example 19.34, 1-[(3aS,6aS)-5-[(5R)-4,5,6,7-tetrahydro-1H-benzotriazole-5-carbonyl]-1,3,3a,4,6,6a-hexahydropyrrolo[3,4-c]pyrrol-2-yl]-2-[4-(trifluoromethoxy)phenoxy]ethanone]",3 nM
15,O=C(/C=C/c1ccc(OC(F)(F)F)c(F)c1)N1CC[C@@H]2CN(C(=O)NCc3cnn[nH]3)C[C@@H]2CC1 [Example 9.03],42 nM
16,"O=C(COc1ccc(C(F)(F)F)cc1Cl)N1CC[C@@H]2CN(C(=O)c3ccc4[nH]nnc4c3)C[C@@H]2CC1 [Example 1.38, 1-((3aR,8aS)-2-(1H-benzo[d][1,2,3]triazole-5-carbonyl)octahydropyrrolo[3,4-d]azepin-6(7H)-yl)-2-(2-chloro-4-(trifluoromethyl)phenoxy)ethanone]",10 nM
17,"O=C(CCc1ccc(C(F)(F)F)cn1)N1C[C@@H]2CN(C(=O)c3ccc4[nH]nnc4c3)C[C@H]2C1 [Example 17.09, 1-[(3aR,6aR)-5-(1H-benzotriazole-5-carbonyl)-hexahydro-pyrrolo[3,4-c]pyrrol-2-yl]-3-(5-trifluoromethyl-pyridin-2-yl)-propan-1-one]",58 nM
18,"CN(Cc1cnn[nH]1)C(=O)N1C[C@H]2CCN(C(=O)CCc3ccc(OC(F)(F)F)c(F)c3)CC[C@H]2C1 [Example 17.02, (3aR,8aS)-N-((1H-1,2,3-triazol-5-yl)methyl)-6-(3-(3-fluoro-4-(trifluoromethoxy)phenyl)-propanoyl)-N-methyloctahydropyrrolo[3,4-d]azepine-2(1H)-carboxamide]",101 nM
19,"O=C(OCc1cc(Cl)cc(Cl)c1)N1CC[C@@H]2CN(C(=O)c3ccc4[nH]c(=O)oc4c3)C[C@H]2C1 (relative stereo) [Example 2, trans-3,5-Dichlorobenzyl 2-(2-oxo-2,3-dihydrobenzo[d]oxazole-6-carbonyl)hexahydro-1H-pyrrolo[3,4-c]pyridine-5(6H)-carboxylate]",10 nM
20,"O=C(OCC1CCCCC1)N1C[C@@H]2CN(C(=O)c3ccc4[nH]nnc4c3)C[C@@H]2C1 [Example 4.19, (3aS,6aR)-5-(1H-benzotriazole-5-carbonyl)-hexahydro-pyrrolo[3,4-c]pyrrole-2-carboxylic acid cyclohexyl methyl ester]",1580 nM
21,"O=C(/C=C/c1ccc(OC(F)(F)F)cc1F)N1C[C@@H]2CN(C(=O)c3ccc4[nH]nnc4c3)C[C@H]2C1 [Example 15.40, (E)-1-((3aR,6aR)-5-(1H-benzo[d][1,2,3]triazole-5-carbonyl)hexahydro-pyrrolo[3,4-c]pyrrol-2(1H)-yl)-3-(2-fluoro-4-(trifluoromethoxy)phenyl)-prop-2-en-1-one]",5 nM
22,"CCOc1cc(C(=O)N2C[C@@H]3CN(C(=O)[C@@H]4CCc5[nH]nnc5C4)C[C@H]3C2)nc2ccccc12 [Example 1.60, (4-ethoxyquinolin-2-yl)((3aS,6aS)-5-((R)-4,5,6,7-tetrahydro-1H-benzo[d][1,2,3]triazole-5-carbonyl)hexahydropyrrolo[3,4-c]pyrrol-2(1H)-yl)methanone]",12 nM
23,"CC(C)c1ccccc1/C=C/C(=O)N1CC[C@@H]2CN(C(=O)c3ccc4[nH]nnc4c3)C[C@@H]2CC1 [Example 1.22, (E)-1-[(3aS,8aR)-2-(1H-benzotriazole-5-carbonyl)-octahydro-pyrrolo[3,4-d]azepin-6-yl]-3-(2-isopropyl-phenyl)-prop-2-en-1-one]",9 nM
24,"O=C(CCc1ccc(OC(F)(F)F)cc1)N1C[C@@H]2CN(C(=O)c3ccc4[nH]nnc4c3F)C[C@H]2C1 [Example 1.59, 1-[(3aR,6aR)-5-(4-fluoro-1H-benzotriazole-5-carbonyl)-hexahydro-pyrrolo[3,4-c]pyrrol-2-yl]-3-(4-trifluoromethoxy-phenyl)-propan-1-one]",6 nM
25,"O=C(OCc1ccc(OC(F)(F)F)cc1)N1CC[C@@H]2CN(C(=O)c3ccc4[nH]nnc4c3)C[C@H]2C1 (relative stereo) [Example 1.24, trans-2-(1H-benzotriazole-5-carbonyl)-octahydro-pyrrolo[3,4-c]pyridine-5-carboxylic acid 4-trifluoromethoxy-benzyl ester]",13 nM
26,"CC(C)c1ccccc1CCC(=O)N1CC[C@@H]2CN(C(=O)c3ccc4[nH]nnc4c3)C[C@@H]2CC1 [Example 17.08, 1-[(3aS,8aR)-2-(1H-benzotriazole-5-carbonyl)-octahydro-pyrrolo[3,4-d]azepin-6-yl]-3-(2-isopropyl-phenyl)-propan-1-one]",16 nM
27,"O=C(/C=C/c1ccc(OC(F)(F)F)cc1)N1CC[C@@H]2CN(C(=O)NCc3cnn[nH]3)C[C@@H]2CC1 [Example 9, (3aR,8aS)—N-((1H-1,2,3-Triazol-5-yl)methyl)-6-((E)-3-(4-(trifluoromethoxy)phenyl)-acryloyl)octahydropyrrolo[3,4-d]azepine-2(1H)-carboxamide]",709 nM
28,"O=C(CCc1ccc(-c2cccnc2)cc1)N1C[C@@H]2CN(C(=O)c3ccc4[nH]nnc4c3)C[C@H]2C1 [Example 17.12, 1-[(3aR,6aR)-5-(1H-benzotriazole-5-carbonyl)-hexahydro-pyrrolo[3,4-c]pyrrol-2-yl]-3-(4-pyridin-3-yl-phenyl)-propan-1-one]",32 nM
29,"O=C(CCc1ccc(OC(F)(F)F)cc1)N1CC[C@@H]2CN(C(=O)NCCc3cnn[nH]3)C[C@@H]2CC1 [Example 17.14, (3aS,8aR)-6-[3-(4-trifluoromethoxy-phenyl)-propionyl]-octahydro-pyrrolo[3,4-d]azepine-2-carboxylic acid [2-(3H-[1,2,3]triazol-4-yl)-ethyl]-amide]",464 nM
